Measurements reported in article PMC11995216, “End-to-End Backbone Cyclization Enhances Passive Permeability of bRo5 Oligomeric Depsipeptides with Nonlinear Size Dependence” (ACS Medicinal Chemistry Letters, 2025).
“And” between values parts separate entries of the source, which are not always exact repeats. Identical values can stand only once. Like-named read-outs stand apart in the source and are kept apart here.

Columns and labels:
PAMPA [1] = system: PAMPA
PAMPA [2] = system: PAMPA; remark: listed apart in the source
PAMPA [3] = conditions: calculated using Supplement Equation 1, UV detection
PAMPA [4] = system: PAMPA; remark: listed apart in the source
[5] = PAMPA, permeability assay across an artificial membrane; conditions: for Diffusion (%): PAMPA percent diffusion; for Acceptor Concentration, Ave: after incubation; for Δ % diffusion: increase: difference between percent diffusion of macrocycle vs linear counterpart
PAMPA [6] = conditions: UV detection
[7] = calculated using Supplement Equation 1, UV detection
[8] = UV detection
[9] = PAMPA, (acceptor + donor)/total analyte, C0 500 uM
[10] = PAMPA, Papp, ratio-based method, mean ± SD, C0 500 uM, UV detection
[11] = PAMPA, Recovery (%), PAMPA, (acceptor + donor)/total analyte, C0 500 uM

## CCCCC[C@@H]1OC(=O)[C@@H](C)N(C)C(=O)[C@H](CCCCC)OC(=O)[C@@H](C)N(C)C(=O)[C@H](CCCCC)OC(=O)[C@@H](C)N(C)C1=O [Compound C1.3, ent-verticilide B1]
PAMPA [1]; Acceptor Concentration (uM) – ELSD Detection / [row 1]
  Acceptor Concentration: 102 µM
PAMPA [1]; Acceptor Concentration (uM) – ELSD Detection / [row 2]
  Acceptor Concentration: 106 µM
PAMPA [1]; Acceptor Concentration (uM) – ELSD Detection / [row 3]
  Acceptor Concentration: 96 µM
PAMPA [1]; Acceptor Concentration (uM) – ELSD Detection / [row 4]
  Acceptor Concentration: 101 µM
PAMPA [1]; Acceptor Concentration (uM) – ELSD Detection / [row 5]
  Acceptor Concentration: 106 µM
PAMPA [1]; Acceptor Concentration (uM) – ELSD Detection / [row 6]
  Acceptor Concentration: 98.1 µM
PAMPA [1]; Acceptor Concentration (uM) – ELSD Detection / [row 7]
  Acceptor Concentration: 103 µM
PAMPA [1]; Acceptor Concentration (uM) – ELSD Detection / [row 8]
  Acceptor Concentration: 90.6 µM
PAMPA [1]; Acceptor Concentration (uM) – ELSD Detection / [row 9]
  Acceptor Concentration: 103 µM
PAMPA [1]; Acceptor Concentration (uM) – ELSD Detection / [row 10]
  Acceptor Concentration: 101 µM
PAMPA [1]; Acceptor Concentration (uM) – ELSD Detection / [row 11]
  Acceptor Concentration: 96.3 µM
PAMPA [1]; Acceptor Concentration (uM) – ELSD Detection / [row 12]
  Acceptor Concentration: 107 µM
PAMPA [1]; Acceptor Concentration (uM) – ELSD Detection / [row 13]
  Acceptor Concentration: 112 µM
PAMPA [1]; Acceptor Concentration (uM) – ELSD Detection / [row 14]
  Acceptor Concentration: 102 µM
PAMPA [1]; Acceptor Concentration (uM) – ELSD Detection / [row 15]
  Acceptor Concentration: 94.9 µM
PAMPA [1]; Acceptor Concentration (uM) – UV Detection / [row 1]
  Acceptor Concentration: 89.6 µM
PAMPA [1]; Acceptor Concentration (uM) – UV Detection / [row 2]
  Acceptor Concentration: 100 µM
PAMPA [1]; Acceptor Concentration (uM) – UV Detection / [row 3]
  Acceptor Concentration: 101 µM
PAMPA [1]; Acceptor Concentration (uM) – UV Detection / [row 4]
  Acceptor Concentration: 93.8 µM
PAMPA [1]; Acceptor Concentration (uM) – UV Detection / [row 5]
  Acceptor Concentration: 88.6 µM
PAMPA [1]; Acceptor Concentration (uM) – UV Detection / [row 6]
  Acceptor Concentration: 79.9 µM
PAMPA [1]; Acceptor Concentration (uM) – UV Detection / [row 7]
  Acceptor Concentration: 82.2 µM
PAMPA [1]; Acceptor Concentration (uM) – UV Detection / [row 8]
  Acceptor Concentration: 95.3 µM
PAMPA [1]; Acceptor Concentration (uM) – UV Detection / [row 9]
  Acceptor Concentration: 83.1 µM
PAMPA [1]; Acceptor Concentration (uM) – UV Detection / [row 10]
  Acceptor Concentration: 88.1 µM
PAMPA [1]; Acceptor Concentration (uM) – UV Detection / [row 11]
  Acceptor Concentration: 84 µM
PAMPA [1]; Acceptor Concentration (uM) – UV Detection / [row 12]
  Acceptor Concentration: 81.4 µM
PAMPA [1]; Acceptor Concentration (uM) – UV Detection / [row 13]
  Acceptor Concentration: 95.3 µM
PAMPA [1]; Acceptor Concentration (uM) – UV Detection / [row 14]
  Acceptor Concentration: 92.2 µM
PAMPA [1]; Acceptor Concentration (uM) – UV Detection / [row 15]
  Acceptor Concentration: 85.4 µM
PAMPA [2]; Papp (x 10^-6 cm/s) – ELSD Detection / [row 1], ELSD Detection
  Papp: 4.16 ×10⁻⁶ cm/s
PAMPA [2]; Papp (x 10^-6 cm/s) – ELSD Detection / [row 2], ELSD Detection
  Papp: 4.41 ×10⁻⁶ cm/s
PAMPA [2]; Papp (x 10^-6 cm/s) – ELSD Detection / [row 3], ELSD Detection
  Papp: 3.96 ×10⁻⁶ cm/s
PAMPA [2]; Papp (x 10^-6 cm/s) – ELSD Detection / [row 4], ELSD Detection
  Papp: 4.13 ×10⁻⁶ cm/s
PAMPA [2]; Papp (x 10^-6 cm/s) – ELSD Detection / [row 5], ELSD Detection
  Papp: 4.45 ×10⁻⁶ cm/s
PAMPA [2]; Papp (x 10^-6 cm/s) – ELSD Detection / [row 6], ELSD Detection
  Papp: 4.03 ×10⁻⁶ cm/s
PAMPA [2]; Papp (x 10^-6 cm/s) – ELSD Detection / [row 9], ELSD Detection
  Papp: 4.31 ×10⁻⁶ cm/s
PAMPA [2]; Papp (x 10^-6 cm/s) – ELSD Detection / [row 10], ELSD Detection
  Papp: 4.39 ×10⁻⁶ cm/s
PAMPA [2]; Papp (x 10^-6 cm/s) – ELSD Detection / [row 11], ELSD Detection
  Papp: 3.96 ×10⁻⁶ cm/s
PAMPA [2]; Papp (x 10^-6 cm/s) – ELSD Detection / [row 12], ELSD Detection
  Papp: 4.4 ×10⁻⁶ cm/s
PAMPA [2]; Papp (x 10^-6 cm/s) – ELSD Detection / [row 13], ELSD Detection
  Papp: 5.05 ×10⁻⁶ cm/s
PAMPA [2]; Papp (x 10^-6 cm/s) – ELSD Detection / [row 14], ELSD Detection
  Papp: 4.44 ×10⁻⁶ cm/s
PAMPA [2]; Papp (x 10^-6 cm/s) – ELSD Detection / [row 15], ELSD Detection
  Papp: 4.01 ×10⁻⁶ cm/s
PAMPA [2]; Papp (x 10^-6 cm/s) – UV Detection / [row 1], UV Detection
  Papp: 3.32 ×10⁻⁶ cm/s
PAMPA [2]; Papp (x 10^-6 cm/s) – UV Detection / [row 2], UV Detection
  Papp: 4.01 ×10⁻⁶ cm/s
PAMPA [2]; Papp (x 10^-6 cm/s) – UV Detection / [row 3], UV Detection
  Papp: 4.37 ×10⁻⁶ cm/s
PAMPA [2]; Papp (x 10^-6 cm/s) – UV Detection / [row 4], UV Detection
  Papp: 3.67 ×10⁻⁶ cm/s
PAMPA [2]; Papp (x 10^-6 cm/s) – UV Detection / [row 5], UV Detection
  Papp: 3.75 ×10⁻⁶ cm/s
PAMPA [2]; Papp (x 10^-6 cm/s) – UV Detection / [row 7], UV Detection
  Papp: 3.19 ×10⁻⁶ cm/s
PAMPA [2]; Papp (x 10^-6 cm/s) – UV Detection / [row 8], UV Detection
  Papp: 4 ×10⁻⁶ cm/s
PAMPA [2]; Papp (x 10^-6 cm/s) – UV Detection / [row 9], UV Detection
  Papp: 3.36 ×10⁻⁶ cm/s
PAMPA [2]; Papp (x 10^-6 cm/s) – UV Detection / [row 10], UV Detection
  Papp: 3.7 ×10⁻⁶ cm/s
PAMPA [2]; Papp (x 10^-6 cm/s) – UV Detection / [row 11], UV Detection
  Papp: 3.24 ×10⁻⁶ cm/s
PAMPA [2]; Papp (x 10^-6 cm/s) – UV Detection / [row 12], UV Detection
  Papp: 3.17 ×10⁻⁶ cm/s
PAMPA [2]; Papp (x 10^-6 cm/s) – UV Detection / [row 13], UV Detection
  Papp: 3.78 ×10⁻⁶ cm/s
PAMPA [2]; Papp (x 10^-6 cm/s) – UV Detection / [row 14], UV Detection
  Papp: 3.81 ×10⁻⁶ cm/s
PAMPA [2]; Papp (x 10^-6 cm/s) – UV Detection / [row 15], UV Detection
  Papp: 3.57 ×10⁻⁶ cm/s
PAMPA [3]; Well 1 / %T, Well 1
  %T: 0.44% (2×) and 0.41%
PAMPA [3]; Well 2 / %T, Well 2
  %T: 0.51% and 0.43% (2×)
PAMPA [3]; Well 3 / %T, Well 3
  %T: 0.54% and 0.51% and 0.49%
PAMPA [3]; Well 4 / %T, Well 4
  %T: 0.48% (2×) and 0.45%
PAMPA [3]; Well 5 / %T, Well 5
  %T: 0.48% (2×) and 0.47%
PAMPA [4]; Well 1 / [donor]
  donor concentration after incubation: 396 µM and 390 µM and 380 µM
PAMPA [4]; Well 2 / [donor]
  donor concentration after incubation: 370 µM and 376 µM and 374 µM
PAMPA [4]; Well 3 / [donor]
  donor concentration after incubation: 341 µM and 351 µM and 372 µM
PAMPA [4]; Well 4 / [donor]
  donor concentration after incubation: 377 µM and 362 µM and 356 µM
PAMPA [4]; Well 5 / [donor]
  donor concentration after incubation: 347 µM and 349 µM and 351 µM
[5]; C0 500 uM
  Diffusion (%): 18.04% and 18.0 ± 1.5%
[5]; [9]
  Recovery (%): 91%
[5]; PAMPA, Papp, Ave, ELSD detection, C0 500 uM
  Papp at 500 uM: 4.24 ×10⁻⁶ cm/s
[5]; [10]
  Papp at 500 uM: 3.64 ± 0.42 ×10⁻⁶ cm/s
[5]; [11]
  recovery at 500 uM: 91.2%
[5]; PAMPA, ELSD detection, C0 500 uM
  Acceptor Concentration, Ave: 101.2 µM
[5]; PAMPA, UV detection, C0 500 uM
  Acceptor Concentration, Ave: 89.4 µM
[5]
  Δ % diffusion: ↑3%
PAMPA [6]; Well 1 / %R, Well 1
  % recovery: 97% and 94% and 93%
PAMPA [6]; Well 2 / %R, Well 2
  % recovery: 94% and 92%
PAMPA [6]; Well 3 / %R, Well 3
  % recovery: 88% and 89% and 94%
PAMPA [6]; Well 4 / %R, Well 4
  % recovery: 94% and 89% and 90%
PAMPA [6]; Well 5 / %R, Well 5
  % recovery: 87%

## CCCCC[C@H](OC(=O)[C@@H](C)N(C)C(=O)[C@H](CCCCC)OC(=O)[C@@H](C)N(C)C(=O)[C@H](CCCCC)OC(=O)[C@@H](C)N(C)C(=O)[C@H](CCCCC)OC(=O)[C@@H](C)N(C)C(=O)[C@H](CCCCC)OC(=O)[C@@H](C)N(C)C(=O)[C@H](CCCCC)OC(=O)[C@@H](C)N(C)C(=O)OC(C)(C)C)C(=O)OCc1ccccc1 [Compound L1.6]
PAMPA [2]; Papp (x 10^-6 cm/s) / experiment 1, UV detection
  Papp: 0.4 ×10⁻⁶ cm/s
PAMPA [2]; Papp (x 10^-6 cm/s) / experiment 2, UV detection
  Papp: 0.44 ×10⁻⁶ cm/s
PAMPA [2]; Papp (x 10^-6 cm/s) / experiment 3, UV detection
  Papp: 0.41 ×10⁻⁶ cm/s
PAMPA [2]; Papp (x 10^-6 cm/s) / experiment 5, UV detection
  Papp: 0.44 ×10⁻⁶ cm/s
PAMPA [2]; Papp (x 10^-6 cm/s) / experiment 6, UV detection
  Papp: 0.43 ×10⁻⁶ cm/s
PAMPA [2]; Papp (x 10^-6 cm/s) / experiment 7, UV detection
  Papp: 0.41 ×10⁻⁶ cm/s
PAMPA [2]; Papp (x 10^-6 cm/s) / experiment 8, UV detection
  Papp: 0.43 ×10⁻⁶ cm/s
PAMPA [2]; Papp (x 10^-6 cm/s) / experiment 10, UV detection
  Papp: 0.4 ×10⁻⁶ cm/s
[7]; Well 1 / %T, Well 1
  %T: 0.32% and 0.44%
[7]; Well 2 / %T, Well 2
  %T: 0.37% and 0.33%
[7]; Well 3 / %T, Well 3
  %T: 0.44% and 0.4%
[7]; Well 4 / %T, Well 4
  %T: 0.41%
[7]; Well 5 / %T, Well 5
  %T: 0.37%
Well 1 / [donor]
  donor concentration after incubation: 435 µM and 410 µM
Well 2 / [donor]
  donor concentration after incubation: 398 µM and 434 µM
Well 3 / [donor]
  donor concentration after incubation: 424 µM and 410 µM
Well 4 / [donor]
  donor concentration after incubation: 416 µM and 415 µM
Well 5 / [donor]
  donor concentration after incubation: 403 µM and 438 µM
[5]; C0 500 uM
  Diffusion (%): < 5%
[5]; [9]
  Recovery (%): 84%
[5]; [10]
  Papp: 0.42 ×10⁻⁶ cm/s
[5]; [11]
  recovery: 83.7%
[5]; PAMPA, UV detection, C0 500 uM
  Acceptor Concentration, Ave: < 25 µM
[5]
  Δ % diffusion: ↑2%
[8]; Well 1 / %R, Well 1
  % recovery: 87% and 82%
[8]; Well 2 / %R, Well 2
  % recovery: 80% and 87%
[8]; Well 3 / %R, Well 3
  % recovery: 85% and 82%
[8]; Well 4 / %R, Well 4
  % recovery: 83%
[8]; Well 5 / %R, Well 5
  % recovery: 81% and 88%
